Experimental data published in patent US8293736B2, “Purine compounds selective for PI3K P110 delta, and methods of use” (F. Hoffmann la Roche AG, priority 2010, dated 2012).

Experiments:
p110 delta = target: T1, p110 delta (Homo sapiens, UniProt O00329); assay: PI3K isoform inhibition assay (fluorescence polarization), p110 delta; type: biochemical; conditions: Ki apparent, Morrison equation; 25 μM ATP, 10 μM PIP2
T1 construct: purchased Upstate Group, Millipore; Dundee, UK
Protocol: (§1) Determination of the activity of PI3 kinase activity of Formula I compounds is possible by a number of direct and indirect detection methods.
(§2) PI3K enzymatic activity was assayed by measuring the amount of product phosphatidylinositol 3,4,5-phosphate (PIP3) formed from substrate 4,5 phosphatidylinositol 4,5-phosphate (PIP2) using a fluorescence polarization displacement assay. The decrease in fluorescence polarization of a fluorescent PIP3 probe is measured as it is displaced from a PIP3-binding protein GRP-1 detector by PI3K-catalyzed product. […] The kinase reactions were initiated by the addition of 40 ng/mL p110α/p85α, 300 ng/mL p110β/p85α, 40 ng/mL p110γ, or 40 ng/mL p110δ/p85α (Upstate Group, Millipore; Dundee, UK), and 10 μM PIP2 (Echelon Biosciences) to the wells. […] After 60 minutes of incubation at room temperature to allow equilibration of labeled and unlabeled PIP3 binding, the parallel and perpendicular components of the fluorescence emissions from each sample were measured at an excitation wavelength of 530 nm and an emission wavelength of 590 nm using an Envision fluorescent plate reader with a rhodamine filter (PerkinElmer Life and Analytical Sciences; Wellesley, Mass.). The assay is capable of detecting 0.1-2.0 μM PIP3 product. The Ki apparent values were obtained by fitting the dose-dependent inhibition data to the Morrison equation for tight-binding, competitive inhibitors. Reference: R. A. Copeland, Enzymes. “A Practical Introduction to Structure, Mechanism and Data Analysis”.
The Formula I compound was serially diluted in 100% DMSO. The kinase reaction was incubated for 1 h at room temperature, and the reaction was terminated by the addition of PBS. IC50 values were subsequently determined using sigmoidal dose-response curve fit (variable slope). […]

p110 alpha = target: T2, p110 alpha (Homo sapiens, UniProt P42336); assay: PI3K isoform inhibition assay (fluorescence polarization), p110 alpha; type: biochemical; conditions: delta/alpha selectivity ratio
T2 construct: purchased Upstate Group, Millipore; Dundee, UK
Protocol: as §1, §2
The same protocol may be used to establish Ki values for p110α (alpha) PI3K binding.
The four Class I PI 3-kinases are cloned into baculovirus vectors as follows: […]

T1 sequence (O00329 whole entry, canonical isoform): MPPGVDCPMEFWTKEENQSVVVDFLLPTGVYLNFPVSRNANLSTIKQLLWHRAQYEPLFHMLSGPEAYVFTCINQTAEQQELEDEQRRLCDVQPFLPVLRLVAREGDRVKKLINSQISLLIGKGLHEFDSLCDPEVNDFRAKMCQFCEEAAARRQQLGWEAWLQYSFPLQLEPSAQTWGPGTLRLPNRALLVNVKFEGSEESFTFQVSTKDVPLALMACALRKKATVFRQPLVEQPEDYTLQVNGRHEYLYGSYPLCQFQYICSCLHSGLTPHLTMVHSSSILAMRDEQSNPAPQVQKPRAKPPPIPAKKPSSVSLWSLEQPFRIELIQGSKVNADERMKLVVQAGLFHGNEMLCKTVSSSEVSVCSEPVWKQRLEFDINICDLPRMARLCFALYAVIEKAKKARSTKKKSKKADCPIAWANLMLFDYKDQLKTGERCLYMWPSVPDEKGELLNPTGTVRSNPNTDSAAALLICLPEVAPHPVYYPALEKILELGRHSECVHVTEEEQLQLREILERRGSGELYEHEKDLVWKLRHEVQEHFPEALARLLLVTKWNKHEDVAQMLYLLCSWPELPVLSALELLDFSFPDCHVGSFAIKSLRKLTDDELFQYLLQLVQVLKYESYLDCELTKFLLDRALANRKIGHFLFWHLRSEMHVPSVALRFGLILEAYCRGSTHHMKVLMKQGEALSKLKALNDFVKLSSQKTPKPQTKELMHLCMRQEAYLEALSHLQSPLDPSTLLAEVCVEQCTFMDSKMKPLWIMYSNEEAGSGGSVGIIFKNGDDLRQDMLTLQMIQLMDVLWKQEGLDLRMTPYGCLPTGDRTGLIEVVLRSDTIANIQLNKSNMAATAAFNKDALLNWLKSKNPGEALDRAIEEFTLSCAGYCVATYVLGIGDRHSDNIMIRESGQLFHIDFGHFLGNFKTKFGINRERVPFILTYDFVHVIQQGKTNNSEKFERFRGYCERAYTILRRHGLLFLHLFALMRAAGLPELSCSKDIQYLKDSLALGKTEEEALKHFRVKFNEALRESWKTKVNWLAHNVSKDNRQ
T1 sequence (P27986 whole entry partner, canonical isoform): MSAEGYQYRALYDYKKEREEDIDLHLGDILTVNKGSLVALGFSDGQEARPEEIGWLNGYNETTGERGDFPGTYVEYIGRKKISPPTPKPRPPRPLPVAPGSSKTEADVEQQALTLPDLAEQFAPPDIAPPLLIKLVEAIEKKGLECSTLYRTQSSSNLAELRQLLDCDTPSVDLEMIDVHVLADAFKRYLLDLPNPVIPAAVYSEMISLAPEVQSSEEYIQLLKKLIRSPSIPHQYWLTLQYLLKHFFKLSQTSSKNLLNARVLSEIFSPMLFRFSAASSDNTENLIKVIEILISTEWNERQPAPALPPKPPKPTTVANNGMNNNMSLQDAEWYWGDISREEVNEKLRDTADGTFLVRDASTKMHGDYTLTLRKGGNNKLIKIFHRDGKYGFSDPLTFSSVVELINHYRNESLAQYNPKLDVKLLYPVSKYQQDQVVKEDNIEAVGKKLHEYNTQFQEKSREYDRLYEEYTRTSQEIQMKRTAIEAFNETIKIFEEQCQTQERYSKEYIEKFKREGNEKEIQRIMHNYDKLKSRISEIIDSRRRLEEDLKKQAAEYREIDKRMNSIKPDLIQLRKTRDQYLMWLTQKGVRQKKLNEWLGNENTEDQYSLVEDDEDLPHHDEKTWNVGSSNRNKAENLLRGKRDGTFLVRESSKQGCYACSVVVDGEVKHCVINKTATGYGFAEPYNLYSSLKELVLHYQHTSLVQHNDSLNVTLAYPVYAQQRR
T2 sequence (P42336 whole entry, species assumed, canonical isoform): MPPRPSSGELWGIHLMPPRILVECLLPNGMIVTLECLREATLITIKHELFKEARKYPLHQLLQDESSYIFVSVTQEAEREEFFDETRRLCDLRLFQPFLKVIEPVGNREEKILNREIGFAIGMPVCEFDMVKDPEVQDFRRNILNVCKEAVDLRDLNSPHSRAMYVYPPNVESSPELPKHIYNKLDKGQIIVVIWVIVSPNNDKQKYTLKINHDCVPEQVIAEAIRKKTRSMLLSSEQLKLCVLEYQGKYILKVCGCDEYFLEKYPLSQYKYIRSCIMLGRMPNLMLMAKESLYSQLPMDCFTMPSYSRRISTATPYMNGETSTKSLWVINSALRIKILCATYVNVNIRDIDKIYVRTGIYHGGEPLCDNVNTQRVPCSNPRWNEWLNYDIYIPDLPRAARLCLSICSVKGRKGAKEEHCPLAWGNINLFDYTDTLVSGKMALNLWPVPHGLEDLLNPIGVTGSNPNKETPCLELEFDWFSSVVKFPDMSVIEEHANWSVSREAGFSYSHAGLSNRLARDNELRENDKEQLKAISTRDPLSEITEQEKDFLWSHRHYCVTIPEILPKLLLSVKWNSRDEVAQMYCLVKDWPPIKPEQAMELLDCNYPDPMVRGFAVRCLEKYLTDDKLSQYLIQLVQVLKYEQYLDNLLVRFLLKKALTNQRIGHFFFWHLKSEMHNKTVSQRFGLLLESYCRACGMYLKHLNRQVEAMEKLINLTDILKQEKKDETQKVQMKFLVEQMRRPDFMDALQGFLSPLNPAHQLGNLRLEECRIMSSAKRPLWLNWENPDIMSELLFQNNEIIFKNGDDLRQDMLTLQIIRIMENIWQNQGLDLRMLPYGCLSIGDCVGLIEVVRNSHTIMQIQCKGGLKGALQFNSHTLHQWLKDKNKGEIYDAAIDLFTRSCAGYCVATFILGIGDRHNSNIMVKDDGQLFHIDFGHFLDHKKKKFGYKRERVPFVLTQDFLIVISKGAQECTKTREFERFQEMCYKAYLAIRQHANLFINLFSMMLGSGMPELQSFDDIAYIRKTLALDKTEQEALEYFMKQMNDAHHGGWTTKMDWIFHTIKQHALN
T2 sequence (P27986 whole entry partner, species assumed, canonical isoform): as the sequence (P27986 whole entry partner, canonical isoform) above

SMILES | Ki (p110 delta) [nM] | Ki p110 alpha/ Ki p110 delta (p110 alpha)
CCc1nc2ccccc2n1-c1nc(N2CCOCC2)c2nc(OC3CN(C(=O)C4C[C@H]4F)C3)n(C)c2n1 (stereo partly drawn) [Compound 154, (3-(2-(2-ethyl-1H-benzo [d]imidazol-1-yl)-9-methyl-6-morpholino-9H-purin-8-yloxy)azetidin-1-yl)((2R)-2-fluorocyclopropyl)methanone] | 0.573 | 102
CO[C@H](C)c1nc2ccccc2n1-c1nc(N2CCOCC2)c2nc(OC3CN(C(=O)C(C)C)C3)n(C)c2n1 [Compound 140, (R)-1-(3-(2-(2-(1-methoxyethyl)-1H-benzo[d]imidazol-1-yl)-9-methyl-6-morpholino-9H-purin-8-yloxy)azetidin-1-yl)-2-methylpropan-1-one] | 1.53 | 64
CCc1nc2ccccc2n1-c1nc(N2CCOCC2)c2nc(OC3CN(C(=O)C4C[C@@H]4F)C3)n(C)c2n1 (stereo partly drawn) [Compound 157, (3-(2-(2-ethyl-1H-benzo[d]imidazol-1-yl)-9-methyl-6-morpholino-9H-purin-8-yloxy)azetidin-1-yl)((2S)-2-fluorocyclopropyl)methanone] | 0.46 | 104
CCc1nc2ccccc2n1-c1nc(N2CCOCC2)c2nc(OC3CN(C(=O)C4(F)CC4)C3)n(C)c2n1 [Compound 146, (3-(2-(2-ethyl-1H-benzo[d]imidazol-1-yl)-9-methyl-6-morpholino-9H-purin-8-yloxy)azetidin-1-yl)(1-fluorocyclopropyl)methanone] | 4.46 | 41
CCc1nc2ccccc2n1-c1nc(N2CCOCC2)c2nc(OC3CCN(C4CCC(O)CC4)CC3)n(C)c2n1 (single isomer, unassigned) [Compound 130, 4-(4-(2-(2-ethyl-1H-benzo[d]imidazol-1-yl)-9-methyl-6-morpholino-9H-purin-8-yloxy)piperidin-1-yl)cyclohexanol] | 0.594 | 151
CCc1nc2ccccc2n1-c1nc(N2CCOCC2)c2nc(OC3CN(C4CCS(=O)(=O)CC4)C3)n(C)c2n1 [Compound 114, 4-(2-(2-ethyl-1H-benzo[d]imidazol-1-yl)-9-methyl-8-(1-(1,1-dioxo-tetrahydro-2H-thiopyran-4-yl)azetidin-3-yloxy)-9H-purin-6-yl)morpholine] | 1.26 | 163
CCc1nc2ccccc2n1-c1nc(N2CCOCC2)c2nc(OC3CN(C(=O)C(C)(C)F)C3)n(C)c2n1 [Compound 147, 1-(3-(2-(2-ethyl-1H-benzo[d]imidazol-1-yl)-9-methyl-6-morpholino-9H-purin-8-yloxy)azetidin-1-yl)-2-fluoro-2-methylpropan-1-one] | 2.33 | 72
CCc1nc2ccccc2n1-c1nc(N2CCOCC2)c2nc(OC3CN(C(=O)C4(C(F)(F)F)CC4)C3)n(C)c2n1 [Compound 155, (3-(2-(2-ethyl-1H-benzo[d]imidazol-1-yl)-9-methyl-6-morpholino-9H-purin-8-yloxy)azetidin-1-yl)(1-(trifluoromethyl)cyclopropyl) methanone] | 0.321 | 91
CCc1nc2ccccc2n1-c1nc(N2CCOCC2)c2nc(OC3CCN(C(=O)C(C)(C)C)CC3)n(C)c2n1 [Compound 113, 1-(4-(2-(2-ethyl-1H-benzo[d]imidazol-1-yl)-9-methyl-6-morpholino-9H-purin-8-yloxy)piperidin-1-yl)-2,2-dimethylpropan-1-one] | 0.879 | 178
CO[C@@H](C)c1nc2ccccc2n1-c1nc(N2CCOCC2)c2nc(OC3CN(C4CCS(=O)(=O)CC4)C3)n(C)c2n1 [Compound 143, (S)-4-(2-(2-(1-methoxyethyl)-1H-benzo[d]imidazol-1-yl)-9-methyl-8-(1-(1,1-dioxo-tetrahydro-2H-thiopyran-4-yl)azetidin-3-yloxy)-9H-purin-6-yl)morpholine] | 1.59 | 50
